Literature values, collected in patent publication US7930948B2, “Device for leaching extraction and assessment” (priority 2007, dated 2011).

Tests used:
[1] = octanol/water partition coefficient; after Mackay et al. 1992
[2] = after Mackay et al. 1992

Compound | log(Kow) [1] | Aqueous Solubility [2] [µg/mL]
c1ccc2cc3c(ccc4ccccc43)cc2c1 [Benzo(a)anthracene] | 5.91 | –
c1ccc2c(c1)-c1cccc3cccc-2c13 [Fluoranthene] | 5.22 | –
c1ccc2c(c1)-c1cccc3c1c-2cc1ccccc13 [Benzo(b)fluoranthene] | 6.50 | –
c1ccc2ccccc2c1 [Naphthalene] | – | 34.4
c1ccc2c(c1)Cc1ccccc1-2 [Fluorene] | 4.18 | –
Acenaphthene | 4.03 | –
c1ccc2c(c1)ccc1cc3c(ccc4ccccc43)cc12 [Dibenzo(a,h)anthracene] | 7.19 | 0.0005
c1ccc2c(c1)-c1ccc3ccc4cccc5cc-2c1c3c45 [Indeno(1,2,3-cd)pyrene] | 7.66 | –
c1ccc2c(c1)cc1ccc3cccc4ccc2c1c34 [Benzo(a)pyren] | 6.50 | –
c1cc2ccc3ccc4ccc5cccc6c(c1)c2c3c4c56 [Benzo(g,h,i)perylene] | 6.85 | 0.00026
c1ccc2cc3c(cc2c1)-c1cccc2cccc-3c12 [Benzo(k)fluoranthene] | 6.84 | 0.00081
C1=Cc2cccc3cccc1c23 [Acenaphthylene] | 4.07 | –
c1ccc2cc3ccccc3cc2c1 [Anthracene] | 4.54 | 0.073
c1ccc2c(c1)ccc1ccccc12 [Phenanthrene] | – | 1.29
